The source made the active and inactive calls. No rule for the calls is given here.
Tested on: CCRIS mutagenicity, Ames/micronucleus/aberration tests
Assay: CCRIS mutagenicity studies
[1] = Test System: AMES SALMONELLA TYPHIMURIUM, Strain/Indicator: TA98, Metabolic Activation: NONE, Method: PREINCUBATION
[2] = Test System: AMES SALMONELLA TYPHIMURIUM, Strain/Indicator: TA100, Metabolic Activation: NONE, Method: PREINCUBATION

With `O=[N+]([O-])c1ccc(Nc2ncnc3c2ncn3-c2ccc([N+](=O)[O-])cc2)cc1` the mutagenic call (Test System: AMES SALMONELLA TYPHIMURIUM, Strain/Indicator: TA98(1,8-DNP), Metabolic Activation: NONE, Method: PREINCUBATION) was “inactive; negative”, the mutagenic call (Test System: AMES SALMONELLA TYPHIMURIUM, Strain/Indicator: TA98(1,8-DNP), Metabolic Activation: RAT, LIVER, S-9, PCB, Method: PREINCUBATION) was “inactive; negative” and the mutagenic call (Test System: AMES SALMONELLA TYPHIMURIUM, Strain/Indicator: TA98(NR), Metabolic Activation: NONE, Method: PREINCUBATION) was “inactive; negative”. The mutagenic call (Test System: AMES SALMONELLA TYPHIMURIUM, Strain/Indicator: TA98(NR), Metabolic Activation: RAT, LIVER, S-9, PCB, Method: PREINCUBATION) was “inactive; negative”, the mutagenic call [1] was “inactive; negative” and the mutagenic call (Test System: AMES SALMONELLA TYPHIMURIUM, Strain/Indicator: TA98, Metabolic Activation: RAT, LIVER, S-9, PCB, Method: PREINCUBATION) was “inactive; negative”. The mutagenic call (Test System: AMES SALMONELLA TYPHIMURIUM, Strain/Indicator: TA100(1,8-DNP), Metabolic Activation: NONE, Method: PREINCUBATION) was “inactive; negative”, the mutagenic call (Test System: AMES SALMONELLA TYPHIMURIUM, Strain/Indicator: TA100(1,8-DNP), Metabolic Activation: RAT, LIVER, S-9, PCB, Method: PREINCUBATION) was “inactive; negative” and the mutagenic call (Test System: AMES SALMONELLA TYPHIMURIUM, Strain/Indicator: TA100(NR), Metabolic Activation: NONE, Method: PREINCUBATION) was “inactive; negative”. The mutagenic call (Test System: AMES SALMONELLA TYPHIMURIUM, Strain/Indicator: TA100(NR), Metabolic Activation: RAT, LIVER, S-9, PCB, Method: PREINCUBATION) was “inactive; negative”, the mutagenic call [2] was “inactive; negative” and the mutagenic call (Test System: AMES SALMONELLA TYPHIMURIUM, Strain/Indicator: TA100, Metabolic Activation: RAT, LIVER, S-9, PCB, Method: PREINCUBATION) was “inactive; negative”. The mutagenic call (Test System: AMES SALMONELLA TYPHIMURIUM, Strain/Indicator: YG1020, Metabolic Activation: NONE, Method: PREINCUBATION) was “inactive; negative”, the mutagenic call (Test System: AMES SALMONELLA TYPHIMURIUM, Strain/Indicator: YG1020, Metabolic Activation: RAT, LIVER, S-9, PCB, Method: PREINCUBATION) was “inactive; negative” and the mutagenic call (Test System: AMES SALMONELLA TYPHIMURIUM, Strain/Indicator: YG1021, Metabolic Activation: RAT, LIVER, S-9, PCB, Method: PREINCUBATION) was “active; positive”. For the same compound, the mutagenic call (Test System: AMES SALMONELLA TYPHIMURIUM, Strain/Indicator: YG1024, Metabolic Activation: RAT, LIVER, S-9, PCB, Method: PREINCUBATION) was “inactive; negative”, the mutagenic call (Test System: AMES SALMONELLA TYPHIMURIUM, Strain/Indicator: YG1025, Metabolic Activation: NONE, Method: PREINCUBATION) was “inactive; negative” and the mutagenic call (Test System: AMES SALMONELLA TYPHIMURIUM, Strain/Indicator: YG1025, Metabolic Activation: RAT, LIVER, S-9, PCB, Method: PREINCUBATION) was “inactive; negative”. The mutagenic call (Test System: AMES SALMONELLA TYPHIMURIUM, Strain/Indicator: YG1026, Metabolic Activation: NONE, Method: PREINCUBATION) was “inactive; negative”, the mutagenic call (Test System: AMES SALMONELLA TYPHIMURIUM, Strain/Indicator: YG1026, Metabolic Activation: RAT, LIVER, S-9, PCB, Method: PREINCUBATION) was “inactive; negative” and the mutagenic call (Test System: AMES SALMONELLA TYPHIMURIUM, Strain/Indicator: YG1029, Metabolic Activation: NONE, Method: PREINCUBATION) was “inactive; negative”. For the same compound, the mutagenic call (Test System: AMES SALMONELLA TYPHIMURIUM, Strain/Indicator: YG1029, Metabolic Activation: RAT, LIVER, S-9, PCB, Method: PREINCUBATION) was “inactive; negative”.

In the case of `Cc1c2c3ccccc3nc-2n(C)c2ccccc12`, the mutagenic call (Test System: AMES SALMONELLA TYPHIMURIUM, Strain/Indicator: TA97, Metabolic Activation: RAT, LIVER, S-9, AROCLOR 1254, Method: STANDARD PLATE) was “active; positive” and the mutagenic call (Test System: AMES SALMONELLA TYPHIMURIUM, Strain/Indicator: TA102, Metabolic Activation: RAT, LIVER, S-9, AROCLOR 1254, Method: STANDARD PLATE) was “active; positive”.

For `O=[N+]([O-])c1cccc(S(=O)(=O)O)c1`, the mutagenic call [1] was “inactive; negative”, the mutagenic call (Test System: AMES SALMONELLA TYPHIMURIUM, Strain/Indicator: TA98, Metabolic Activation: RAT, LIVER, S-9, KANECHLOR 500, Method: PREINCUBATION) was “inactive; negative” and the mutagenic call [2] was “inactive; negative”. The mutagenic call (Test System: AMES SALMONELLA TYPHIMURIUM, Strain/Indicator: TA100, Metabolic Activation: RAT, LIVER, S-9, KANECHLOR 500, Method: PREINCUBATION) was “inactive; negative”.

For `O=C(OCc1ccccc1)c1cccc2cccnc12`, the mutagenic call (Test System: AMES SALMONELLA TYPHIMURIUM, Strain/Indicator: TA98, Metabolic Activation: NONE, Method: STANDARD PLATE) was “inactive; negative”, the mutagenic call (Test System: AMES SALMONELLA TYPHIMURIUM, Strain/Indicator: TA98, Metabolic Activation: RAT, LIVER, S-9, AROCLOR 1254, Method: STANDARD PLATE) was “inactive; negative” and the mutagenic call (Test System: AMES SALMONELLA TYPHIMURIUM, Strain/Indicator: TA100, Metabolic Activation: NONE, Method: STANDARD PLATE) was “inactive; negative”. For the same compound, the mutagenic call (Test System: AMES SALMONELLA TYPHIMURIUM, Strain/Indicator: TA100, Metabolic Activation: RAT, LIVER, S-9, AROCLOR 1254, Method: STANDARD PLATE) was “inactive; negative”, the mutagenic call (Test System: AMES SALMONELLA TYPHIMURIUM, Strain/Indicator: TA1535, Metabolic Activation: NONE, Method: STANDARD PLATE) was “inactive; negative” and the mutagenic call (Test System: AMES SALMONELLA TYPHIMURIUM, Strain/Indicator: TA1535, Metabolic Activation: RAT, LIVER, S-9, AROCLOR 1254, Method: STANDARD PLATE) was “inactive; negative”. For the same compound, the mutagenic call (Test System: AMES SALMONELLA TYPHIMURIUM, Strain/Indicator: TA1537, Metabolic Activation: NONE, Method: STANDARD PLATE) was “inactive; negative” and the mutagenic call (Test System: AMES SALMONELLA TYPHIMURIUM, Strain/Indicator: TA1537, Metabolic Activation: RAT, LIVER, S-9, AROCLOR 1254, Method: STANDARD PLATE) was “inactive; negative”.

With `CC(C)CC(C)N` (configuration not stated) the mutagenic call (Test System: AMES SALMONELLA TYPHIMURIUM, Strain/Indicator: TA98, Metabolic Activation: HAMSTER, LIVER, S-9, AROCLOR 1254 (10%), Method: PREINCUBATION) was “inactive; negative”, the mutagenic call [1] was “inactive; negative” and the mutagenic call (Test System: AMES SALMONELLA TYPHIMURIUM, Strain/Indicator: TA98, Metabolic Activation: RAT, LIVER, S-9, AROCLOR 1254 (10%), Method: PREINCUBATION) was “inactive; negative”. For the same compound, the mutagenic call (Test System: AMES SALMONELLA TYPHIMURIUM, Strain/Indicator: TA100, Metabolic Activation: HAMSTER, LIVER, S-9, AROCLOR 1254 (10%), Method: PREINCUBATION) was “inactive; negative”, the mutagenic call [2] was “inactive; negative” and the mutagenic call (Test System: AMES SALMONELLA TYPHIMURIUM, Strain/Indicator: TA100, Metabolic Activation: RAT, LIVER, S-9, AROCLOR 1254 (10%), Method: PREINCUBATION) was “inactive; negative”. For the same compound, the mutagenic call (Test System: AMES SALMONELLA TYPHIMURIUM, Strain/Indicator: TA1535, Metabolic Activation: HAMSTER, LIVER, S-9, AROCLOR 1254 (10%), Method: PREINCUBATION) was “inactive; negative”, the mutagenic call (Test System: AMES SALMONELLA TYPHIMURIUM, Strain/Indicator: TA1535, Metabolic Activation: NONE, Method: PREINCUBATION) was “inactive; negative” and the mutagenic call (Test System: AMES SALMONELLA TYPHIMURIUM, Strain/Indicator: TA1535, Metabolic Activation: RAT, LIVER, S-9, AROCLOR 1254 (10%), Method: PREINCUBATION) was “inactive; negative”. The mutagenic call (Test System: AMES SALMONELLA TYPHIMURIUM, Strain/Indicator: TA1537, Metabolic Activation: HAMSTER, LIVER, S-9, AROCLOR 1254 (10%), Method: PREINCUBATION) was “inactive; negative”, the mutagenic call (Test System: AMES SALMONELLA TYPHIMURIUM, Strain/Indicator: TA1537, Metabolic Activation: NONE, Method: PREINCUBATION) was “inactive; negative” and the mutagenic call (Test System: AMES SALMONELLA TYPHIMURIUM, Strain/Indicator: TA1537, Metabolic Activation: RAT, LIVER, S-9, AROCLOR 1254 (10%), Method: PREINCUBATION) was “inactive; negative”.

For `COc1cc([C@@H]2c3cc4c(cc3[C@@H](O[C@@H]3O[C@@H]5CO[C@@H](c6cccs6)O[C@H]5[C@H](O)[C@H]3O)[C@H]3COC(=O)[C@H]23)OCO4)cc(OC)c1O`, the mutagenic call (Test System: MOUSE LYMPHOMA, Strain/Indicator: L5178Y (HPRT)/6-THIOGUANINE, Metabolic Activation: NONE, Method: FLUCTUATION TEST) was “inactive; negative”, the mutagenic call (Test System: MOUSE LYMPHOMA, Strain/Indicator: L5178Y (TK+/TK-), Metabolic Activation: NONE) was “active; positive” and the mutagenic call (Test System: MOUSE LYMPHOMA, Strain/Indicator: L5178Y (TK+/TK-), Metabolic Activation: NONE, Method: FLUCTUATION TEST) was “active; positive”. The mutagenic call (Test System: MOUSE LYMPHOMA, Strain/Indicator: L5178Y (TK+/TK-), Metabolic Activation: NONE, Method: SUSPENSION/PLATE) was “active; positive”.
